Assay results: PubChem BioAssay AID328 (DTP/NCI, 2004)
Several values for one entry are separate records, joined by “and”; a condition that tells them apart may be missing. Equal entries are not always repeated. Inconclusive results and toxic doses are left out.

Test system: BDF1 mice, P388 leukemia ip, median survival T/C
Test: NCI In Vivo Anticancer Drug Screen. Data for tumor model P388 Leukemia (intraperitoneal) in B6D2F1 (BDF1) mice
Details: endpoint: median survival time, higher = longer survival
How it was run: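 Steps: implant the tumour, treat one group with compound and another with vehicle, record survival, then divide treated by control.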

[1] = dose: 50.0 mg/kg/injection, schedule: Q01DX009 (ip), vehicle: saline with Tween-80
[2] = dose: 100.0 mg/kg/injection, schedule: Q01DX009 (ip), vehicle: saline with Tween-80
[3] = dose: 100.0 mg/kg/injection, schedule: Q04DX003 (ip), vehicle: saline with Tween-80
[4] = dose: 200.0 mg/kg/injection, schedule: Q01DX009 (ip), vehicle: saline with Tween-80
[5] = dose: 200.0 mg/kg/injection, schedule: Q04DX003 (ip), vehicle: saline with Tween-80
[6] = dose: 400.0 mg/kg/injection, schedule: Q01DX009 (ip), vehicle: saline with Tween-80
[7] = dose: 400.0 mg/kg/injection, schedule: Q04DX003 (ip), vehicle: saline with Tween-80
[8] = dose: 12.5 mg/kg/injection, schedule: Q01DX009 (ip), vehicle: water
[9] = dose: 12.5 mg/kg/injection, schedule: Q04DX003 (ip), vehicle: water
[10] = dose: 25.0 mg/kg/injection, schedule: Q01DX009 (ip), vehicle: water
[11] = dose: 25.0 mg/kg/injection, schedule: Q04DX003 (ip), vehicle: water
[12] = dose: 50.0 mg/kg/injection, schedule: Q01DX009 (ip), vehicle: water
[13] = dose: 50.0 mg/kg/injection, schedule: Q04DX003 (ip), vehicle: water
[14] = dose: 100.0 mg/kg/injection, schedule: Q01DX009 (ip), vehicle: water

SMILES: CCOC(=O)C(Cc1ccc(N(CCCl)CCCl)cc1)NC(=O)C(C)NC(C)=O (stereo unspecified)
- T/C (dose: 5.0 mg/kg/injection, schedule: Q04DX003 (ip), vehicle: water): 99 % of control
- T/C (dose: 10.0 mg/kg/injection, schedule: Q04DX003 (ip), vehicle: water): 99 % of control
- T/C (dose: 20.0 mg/kg/injection, schedule: Q04DX003 (ip), vehicle: water): 112 % of control
- T/C (dose: 40.0 mg/kg/injection, schedule: Q04DX003 (ip), vehicle: water): 116 % of control

SMILES: CC(=O)N1C(=O)NC(=O)C1(C)c1ccco1 (stereo unspecified)
- T/C (dose: 25.0 mg/kg/injection, schedule: Q01DX009 (ip), vehicle: saline with Tween-80): 122 % of control
- T/C [1]: 112 % of control
- T/C [2]: 103 % of control and 122 % of control
- T/C [3]: 109 % of control and 113 % of control
- T/C [4]: 92 % of control and 115 % of control
- T/C [5]: 104 % of control and 122 % of control
- T/C [6]: 87 % of control
- T/C [7]: 90 % of control

SMILES: c1ccc2c(c1)CC1C2ON2CCc3ccccc3C12 (stereo unspecified)
- T/C [2]: 91 % of control
- T/C [4]: 97 % of control
- T/C [6]: 109 % of control

SMILES: CN(C)CCNC1=CC(=O)c2ccccc2C1=O
- T/C [8]: 91 % of control
- T/C [9]: 107 % of control
- T/C [10]: 102 % of control
- T/C [11]: 100 % of control
- T/C [12]: 100 % of control
- T/C [13]: 100 % of control
- T/C [14]: 98 % of control
- T/C (dose: 100.0 mg/kg/injection, schedule: Q04DX003 (ip), vehicle: water): 98 % of control
- T/C (dose: 200.0 mg/kg/injection, schedule: Q01DX009 (ip), vehicle: water): 96 % of control and 105 % of control

SMILES: CC1=Nc2ccccc2/C1=C\c1c(C)[nH]c2ccccc12
- T/C (dose: 5.5 mg/kg/injection, schedule: Q01DX009 (ip), vehicle: Klucel (hydroxypropylcellulose) (HPC)): 109 % of control
- T/C (dose: 8.2 mg/kg/injection, schedule: Q01DX009 (ip), vehicle: Klucel (hydroxypropylcellulose) (HPC)): 118 % of control
- T/C (dose: 12.5 mg/kg/injection, schedule: Q01DX009 (ip), vehicle: Klucel (hydroxypropylcellulose) (HPC)): 161 % of control
- T/C (dose: 33.0 mg/kg/injection, schedule: Q01DX009 (ip), vehicle: Klucel (hydroxypropylcellulose) (HPC)): 103 % of control and 109 % of control
- T/C (dose: 75.0 mg/kg/injection, schedule: Q01DX009 (ip), vehicle: Klucel (hydroxypropylcellulose) (HPC)): 96 % of control and 113 % of control
- T/C (dose: 200.0 mg/kg/injection, schedule: Q01DX009 (ip), vehicle: Klucel (hydroxypropylcellulose) (HPC)): 154 % of control

SMILES: O=C1c2c(O)ccc([N+](=O)[O-])c2C(=O)c2c([N+](=O)[O-])ccc(O)c21
- T/C (dose: 100.0 mg/kg/injection, schedule: Q04DX003 (ip), vehicle: Klucel (hydroxypropylcellulose) (HPC)): 118 % of control
- T/C (dose: 200.0 mg/kg/injection, schedule: Q04DX003 (ip), vehicle: Klucel (hydroxypropylcellulose) (HPC)): 122 % of control
- T/C (dose: 400.0 mg/kg/injection, schedule: Q04DX003 (ip), vehicle: Klucel (hydroxypropylcellulose) (HPC)): 113 % of control

SMILES: CCC1(O)CC2CN(CCc3c([nH]c4ccccc34)C(C(=O)OC)(c3cc4c(cc3OC)N(C)C3C(O)(C(=O)NCCO)C(O)C5(CC)C=CCN6CCC43C65)C2)C1 (stereo unspecified)
- T/C (dose: 500.0 micrograms/kg/injection, schedule: Q04DX003 (ip), vehicle: saline): 173 % of control
- T/C (dose: 1000.0 micrograms/kg/injection, schedule: Q04DX003 (ip), vehicle: saline): 182 % of control
- T/C (dose: 2000.0 micrograms/kg/injection, schedule: Q04DX003 (ip), vehicle: saline): 219 % of control
- T/C (dose: 4000.0 micrograms/kg/injection, schedule: Q04DX003 (ip), vehicle: saline): 286 % of control

SMILES: C[n+]1ccc(NC(=O)c2ccc(NC(=O)c3cccc(C(=O)Nc4ccc(C(=O)Nc5cc[n+](C)cc5)cc4)c3)cc2)cc1
- T/C (dose: 66.0 mg/kg/injection, schedule: Q04DX003 (ip), vehicle: saline with Tween-80): 160 % of control
- T/C [3]: 239 % of control

SMILES: Cc1cc(C)c(CN)cc1C
- T/C (dose: 5.0 mg/kg/injection, schedule: Q04DX003 (ip), vehicle: saline with Tween-80): 100 % of control
- T/C (dose: 10.0 mg/kg/injection, schedule: Q04DX003 (ip), vehicle: saline with Tween-80): 100 % of control
- T/C (dose: 20.0 mg/kg/injection, schedule: Q04DX003 (ip), vehicle: saline with Tween-80): 100 % of control

SMILES: CN1CCC2=C(C1)C(N1CCCC1)CS(=O)(=O)O2 (stereo unspecified)
- T/C (dose: 12.5 mg/kg/injection, schedule: Q04DX002 (ip), vehicle: saline): 100 % of control
- T/C (dose: 25.0 mg/kg/injection, schedule: Q04DX002 (ip), vehicle: saline): 102 % of control
- T/C (dose: 50.0 mg/kg/injection, schedule: Q04DX002 (ip), vehicle: saline): 99 % of control

SMILES: O=C(C/C(=N\C(=S)Nc1cc(C(F)(F)F)ccc1Cl)NO)N1CCCC1
- T/C [1]: 110 % of control

SMILES: CC12CCC(O)CC1CCC1C2CCC2(C)C(C3=CC(=O)OC3)CCC12 (stereo unspecified)
- T/C (dose: 140.0 mg/kg/injection, schedule: Q01DX010 (ip), vehicle: carboxymethylcellulose (CMC)): 122 % of control
- T/C (dose: 280.0 mg/kg/injection, schedule: Q01DX010 (ip), vehicle: carboxymethylcellulose (CMC)): 122 % of control

SMILES: OCCOc1cccc(OCCO)c1
- T/C [3]: 100 % of control
- T/C [5]: 100 % of control
- T/C [7]: 104 % of control

SMILES: S=C1NCCS1
- T/C (dose: 22.5 mg/kg/injection, schedule: Q01DX009 (ip), vehicle: saline with Tween-80): 97 % of control
- T/C (dose: 45.0 mg/kg/injection, schedule: Q01DX009 (ip), vehicle: saline with Tween-80): 97 % of control
- T/C (dose: 90.0 mg/kg/injection, schedule: Q01DX009 (ip), vehicle: saline with Tween-80): 92 % of control

SMILES: Nc1nc2nsnc2nc1N
- T/C (dose: 1.56 mg/kg/injection, schedule: Q01DX009 (ip), vehicle: water): 111 % of control
- T/C (dose: 3.12 mg/kg/injection, schedule: Q01DX009 (ip), vehicle: water): 111 % of control
- T/C (dose: 3.12 mg/kg/injection, schedule: Q04DX003 (ip), vehicle: water): 100 % of control
- T/C (dose: 6.25 mg/kg/injection, schedule: Q01DX009 (ip), vehicle: water): 100 % of control
- T/C (dose: 6.25 mg/kg/injection, schedule: Q04DX003 (ip), vehicle: water): 110 % of control
- T/C [8]: 100 % of control
- T/C [9]: 100 % of control
- T/C [10]: 102 % of control
- T/C [11]: 110 % of control
- T/C [12]: 111 % of control
- T/C [13]: 115 % of control
- T/C [14]: 118 % of control

SMILES: C[N+](C)(C)c1ncnc2nc[nH]c12
- T/C (dose: 15.0 mg/kg/injection, schedule: Q01DX010 (ip), vehicle: saline): 91 % of control and 100 % of control
- T/C (dose: 30.0 mg/kg/injection, schedule: Q01DX010 (ip), vehicle: saline): 100 % of control and 104 % of control
- T/C (dose: 60.0 mg/kg/injection, schedule: Q01DX010 (ip), vehicle: saline): 91 % of control and 100 % of control
- T/C (dose: 100.0 mg/kg/injection, schedule: Q01DX001 (ip), vehicle: saline): 100 % of control
- T/C (dose: 120.0 mg/kg/injection, schedule: Q01DX010 (ip), vehicle: saline): 91 % of control and 95 % of control
- T/C (dose: 200.0 mg/kg/injection, schedule: Q01DX001 (ip), vehicle: saline): 110 % of control

SMILES: COC(=O)C1Cc2c([nH]c3ccccc23)CN1 (stereo unspecified)
- T/C (dose: 10.0 mg/kg/injection, schedule: Q01DX009 (ip), vehicle: saline): 116 % of control
- T/C (dose: 10.0 mg/kg/injection, schedule: Q04DX003 (ip), vehicle: saline): 95 % of control
- T/C (dose: 20.0 mg/kg/injection, schedule: Q01DX009 (ip), vehicle: saline): 100 % of control
- T/C (dose: 20.0 mg/kg/injection, schedule: Q04DX003 (ip), vehicle: saline): 109 % of control
- T/C (dose: 40.0 mg/kg/injection, schedule: Q01DX009 (ip), vehicle: saline): 112 % of control
- T/C (dose: 40.0 mg/kg/injection, schedule: Q04DX003 (ip), vehicle: saline): 95 % of control

SMILES: CC(C)CNC(c1ccc2c(c1)OCO2)C(O)c1ccc2c(c1)OCO2 (stereo unspecified)
- T/C (dose: 100.0 mg/kg/injection, schedule: Q01DX001 (ip), vehicle: saline with Tween-80): 100 % of control
- T/C (dose: 200.0 mg/kg/injection, schedule: Q01DX001 (ip), vehicle: saline with Tween-80): 115 % of control
- T/C (dose: 400.0 mg/kg/injection, schedule: Q01DX001 (ip), vehicle: saline with Tween-80): 108 % of control
